Test system: mice with formed alcohol dependence (male mice of SHK line)
Experiment: Alcohol-deprivation effect (ADE): voluntary consumption of 10% alcohol in a 90-minute test before and after 4-day deprivation
Type: in vivo
Conditions: for Alcohol consumption before deprivation: baseline test before deprivation and dosing; for ADE (ADE index): index >0.5 = alcohol dependence
Protocol: Alcohol dependence is determined by the increasing of alcohol consumption induced by short-time deprivation of alcohol. The occurrence and the level of this increasing is a criterion for self-control loss during the period of heavy drinking [Maisky A. I., Salimov R. M. Procedural guidelines for investigation of anti-alcohol medications. The guidebook for experimental (preclinical) investigation of novel pharmacological substances. Ed. Harbiev R. U., publ. “Medicine”, Moscow, 2005, p. 342-356].
For overcoming of the possible first-use gustatory rejection of alcohol solution during the first 6 days of the experiment male mice of SHK line were not given water, they had access only to alcohol solution of increasing concentration (3%—on the first and second days, 6%—on the third and fourth days and 10%—on the fifth and sixth days) [Mc Kinzie et al., Alcohol Clin Exp Res. 1998, 22(7):1584-90]. At that, free access to food was provided. During the next 2 months the animals had free access to pure water, food and 10% solution of alcohol.
For quantitative estimation of alcohol motivation the amount of voluntary alcohol (10% solution) consumption during the 90-minute's test after 4-day's alcohol deprivation was compared with the amount of alcohol consumed during the test carried out before 4-day's alcohol deprivation (alcohol-deprivation effect, ADE). ADE index was calculated as a ratio of alcohol consumption after its withdrawal (grams of pure alcohol per kilogram of body mass) to the total alcohol consumption before and after its withdrawal. The existence of alcohol dependence is determined by the value of ADE index exceeding 0.5, a lower meaning of ADE index corresponds to the absence of alcohol dependence.
At the end of 2-month's period of free access to water and alcohol the above estimation of ADE was carried out, and for further experiments the animals with ADE index exceeding 0.5 were selected. These mice, which had practically identical ADE values, were divided into groups of 9-12 animals.
Sodium γ-hydroxybutyrate was used as a reference drug in the experiments with male mice of SHK line.
Peroral administration once a day for 4 days running

[1] = dose 150 mg/kg peroral once a day for 4 days during deprivation
[2] = dose 2.0 mg/kg peroral once a day for 4 days during deprivation
[3] = dose 10.0 mg/kg peroral once a day for 4 days during deprivation
[4] = dose 10.0 mg/kg peroral once a day for 4 days
[5] = dose 0.5 mg/kg peroral once a day for 4 days during deprivation
[6] = dose 3.0 mg/kg peroral once a day for 4 days during deprivation
[7] = dose 20.0 mg/kg peroral once a day for 4 days during deprivation

Structure (SMILES): O=C([O-])CCCO.[Na+] [SHB, sodium γ-hydroxybutyrate]
- Alcohol consumption after deprivation [1]: 1.49 ± 1.10 g/kg
- Alcohol consumption before deprivation [1]: 2.36 ± 0.75 g/kg
- ADE (ADE index) (dose 150 mg/kg peroral once a day for 4 days): 0.45 ± 0.07
- effect on alcohol-deprivation effect, in words (reference drug, 150 mg/kg (Table 3)): significant decreasing of alcohol-deprivation effect

Structure (SMILES): Cl.c1c(C2CCCCC2)cc2c3c(n4c2c1NCC4)CCCC3 [2.2, 5-cyclohexyl-2,3,7,8,9,10-hexahydro-1H-pyrazino[3,2,1-jk]carbazole hydrochloride]
- alcohol-deprivation effect (increasing of alcohol consumption after 4-days' deprivation), observed or not (2 and 10 mg/kg doses): observed
- Alcohol consumption after deprivation [2]: 3.42 ± 1.16 g/kg
- Alcohol consumption before deprivation [2]: 2.61 ± 0.79 g/kg
- ADE (ADE index) (dose 2.0 mg/kg peroral once a day for 4 days): 0.58 ± 0.08
- Alcohol consumption after deprivation [3]: 5.05 ± 1.10 g/kg
- Alcohol consumption before deprivation [3]: 2.61 ± 0.75 g/kg
- ADE (ADE index) [4]: 0.61 ± 0.07
- influence on ADE, in words (used alone in doses of 2-10 mg/kg): does not influence ADE

Structure (SMILES): Br.CCSc1nc2ccccc2[nH]1 [1.1, 2-ethylsulfanyl-1H-benzimidazole hydrobromide]
- alcohol-deprivation effect (increasing of alcohol consumption after 4-days' deprivation), observed or not (0.5 mg/kg dose): observed
- post-deprivation increasing of alcohol consumption, observed or not (3-20 mg/kg): not observed
- Alcohol consumption after deprivation [5]: 4.36 ± 1.10 g/kg
- Alcohol consumption before deprivation [5]: 1.96 ± 0.75 g/kg
- ADE (ADE index) (dose 0.5 mg/kg peroral once a day for 4 days): 0.65 ± 0.07
- Alcohol consumption after deprivation [6]: 2.60 ± 1.10 g/kg
- Alcohol consumption before deprivation [6]: 3.49 ± 0.75 g/kg
- ADE (ADE index) (dose 3.0 mg/kg peroral once a day for 4 days): 0.46 ± 0.07
- Alcohol consumption after deprivation [3]: 1.59 ± 1.10 g/kg
- Alcohol consumption before deprivation [3]: 2.79 ± 0.75 g/kg
- ADE (ADE index) [4]: 0.39 ± 0.07
- Alcohol consumption after deprivation [7]: 1.55 ± 1.10 g/kg
- Alcohol consumption before deprivation [7]: 2.56 ± 0.75 g/kg
- ADE (ADE index) (dose 20.0 mg/kg peroral once a day for 4 days): 0.31 ± 0.07
- dose at which the decrease of alcohol-deprivation effect appears (dose-dependent, more noticeable at 20 mg/kg): 3 mg/kg

Source: patent US20110245231A1, “ACTIVE SUBSTANCE AND PHARMACEUTICAL COMPOSITION FOR TREATING ALCOHOL DEPENDENCE, AND A METHOD FOR OBTAINING AND THE USE OF SAID ACTIVE SUBSTANCE” (Alla Chem, LLC, priority 2009, published 2011)
